Assay results taken from patent publication US6252121A, “Metal-ligand complex catalyzed processes” (Union Carbide Chemicals & Plastics Technology Corporation, priority 1999, dated 2001).
Each block holds one compound with its values, some of them ahead of it.

Assays:
[1] = Relative hydroformylation reaction rates with Ligands C and G-J
Procedure: […]. A mixture of 1,2,3,6-tetrahydrobenzaldehyde (6 grams) and octane (4 grams, internal standard) was added to the autoclave. The reaction rate was determined by gas chromatographic analyses of the samples taken during the course of reaction.

[2] = Hydroformylation reaction rate of rhodium/ligand catalyst; conditions: 90° C., 300 ppm Rh, ligand/rhodium 20/1
Procedure: […] A mixture of 1,2,3,6-tetrahydrobenzaldehyde (6 grams) and octane (4 grams, internal standard) was added to the autoclave. The reaction rate was determined by gas chromatographic analyses of the samples taken during the course of reaction.
The procedure described in Example 1 was repeated with the modification of using Ligands B-F in place of Ligand A. The reaction rates for Ligands B-F are summarized in Table 1.

[3] = Partition of polar hydroformylation products, acetonitrile/hexane (GC); assay type: physicochemical; conditions: hexane/acetonitrile equal volumes
Procedure: The efficiency of the phase separation can be measured by a partition coefficient Kp of the one or more cyclic products which is defined as follows: [formula]
Solutions of polar hydroformylation products were prepared in acetonitrile. To each solution was added an equal volume of hexane, the mixture was vigorously shaken, allowed to settle and phase separate. The two phases were analyzed for polar aldehydes by gas chromatography.

[4] = Miscibility of reaction products with toluene (Comparative Example); assay type: physicochemical; conditions: reaction at 100° C. for 24 hours; no spontaneous phase separation
Procedure: The reaction was carried out at 100° C. for 24 hours. No spontaneous phase separation was observed upon the reaction completion.

[5] = hexane, 100 psi syngas (CO/H2 1:1)
[6] = Tetraglyme, 90° C., L/Rh ratio 20

Compound: O=S(=O)(O)c1cccc(P(C2CCCCC2)C2CCCCC2)c1 [Ligand J]
- Relative Rate ([1]; 1-Methyl-2-pyrrolidinone, 120° C., L/Rh ratio 5): 0.14

Compound: CC(C)(c1ccccc1)c1ccc(OP(Oc2ccc(C(C)(C)c3ccccc3)cc2C(C)(C)c2ccccc2)Oc2ccc(C(C)(C)c3ccccc3)cc2C(C)(C)c2ccccc2)c(C(C)(C)c2ccccc2)c1 [Ligand A]
- reaction rate [2, 5]: 2.5 mol/L-hr

Compound: CCC(C)(C)c1ccc(OP(Oc2ccc(C(C)(C)CC)cc2C(C)(C)CC)Oc2ccc(C(C)(C)CC)cc2C(C)(C)CC)c(C(C)(C)CC)c1 [Ligand D]
- reaction rate [2, 5]: 3.6 mol/L-hr

- Kpartition of polar product ([3]; 5 wt. %): 38
- Kpartition of polar product ([3]; 10 wt. %): 34
- Kpartition of polar product ([3]; 20 wt. %): 35
Compound: 1,3- and 1,4-cyclohexanedicarboxaldehyde

- Kpartition of polar product ([3]; 10 wt. %): 69
Compound: 3-cyano-1-cyclohexanecarboxaldehyde and 4-cyano-1-cyclohexanecarboxaldehyde [cyanocyclohexanecarboxaldehyde]

Compound: CC(C)(C)c1ccccc1OP(Oc1ccccc1C(C)(C)C)Oc1ccccc1C(C)(C)C [Ligand B]
- reaction rate [2, 5]: 3.4 mol/L-hr

Compound: COc1ccc(Op2oc3c(C(C)(C)C)cc(OC)cc3c3cc(OC)cc(C(C)(C)C)c3o2)c(C(C)(C)C)c1 [Ligand G]
- Relative Rate [1, 6]: 0.46

Compound: CCCCCC(C)(C)c1ccc(OP(Oc2ccc(C(C)(C)CCCCC)cc2C(C)(C)CCCCC)Oc2ccc(C(C)(C)CCCCC)cc2C(C)(C)CCCCC)c(C(C)(C)CCCCC)c1 [Ligand E]
- reaction rate [2, 5]: 3.7 mol/L-hr

Compound: CCCCCCCCCC(C)(C)c1ccc(OP(Oc2ccc(C(C)(C)CCCCCCCCC)cc2C(C)(C)CCCCCCCCC)Oc2ccc(C(C)(C)CCCCCCCCC)cc2C(C)(C)CCCCCCCCC)c(C(C)(C)CCCCCCCCC)c1 [Ligand F]
- reaction rate [2, 5]: 3.3 mol/L-hr

- miscibility with toluene [4]: completely miscible with toluene
Compound: tricyclodecane dialdehydes

Compound: CC(C)(C)c1cc(-c2cc(C(C)(C)C)cc(C(C)(C)C)c2Op2oc3ccccc3c3ccccc3o2)c(Op2oc3ccccc3c3ccccc3o2)c(C(C)(C)C)c1 [Ligand H]
- Relative Rate ([1]; Tetraglyme, 90° C., L/Rh ratio 4): 0.34

Compound: C1CCC(P(C2CCCCC2)C2CCCCC2)CC1 [Ligand I]
- Relative Rate ([1]; Tetraglyme, 120° C., L/Rh ratio 5): 0.17

Compound: CC(C)(C)c1ccc(OP(Oc2ccc(C(C)(C)C)cc2C(C)(C)C)Oc2ccc(C(C)(C)C)cc2C(C)(C)C)c(C(C)(C)C)c1 [Ligand C]
- Relative Rate [1, 6]: 1
- reaction rate [2, 5]: 4.0 mol/L-hr
- reaction rate ([2]; toluene in place of hexane, 100 psi syngas): 4.4 mol/L-hr
